Results: patent US20120015882A1, “COMPOSITION FOR REGULATING AUTONOMIC NERVOUS ACTIVITY AND METHOD FOR REGULATING AUTONOMIC NERVE” (priority 2009, published 2012)

Tests used:
autonomic nerve = settings: intravenous administration; cited from earlier work
opioid receptors = settings: cited from earlier work
blood pressure = settings: orally administered; cited from earlier work
pain = settings: rat, intraperitoneal; cited from earlier work
[1] = tested on: time of stay on the open arms; test: Elevated plus-maze test (anti-anxiety effect); type: in vivo; settings: ddY mice, oral 0.1 mg/kg weight to 100 mg/kg weight, test 30 minutes after administration
Experimental: Water, 0.1 mg/kg weight to 100 mg/kg weight of Tyr-Pro, or 10 mg/kg to 1000 mg/kg weight of a casein hydrolysate was administered to mice (n=12), and the time for which the mice stayed on open arms was measured (Example 4). […] The data were expressed in the form of mean±standard error. A significance test with respect to the water-administered control group was conducted by an unpaired Student's t test, and *, **, and *** indicate that P<0.05, P<0.01, and P<0.001, respectively.
Male ddY mice (approximately 6-week old) (n=12) were used. After preliminary feeding, Tyr-Pro (0.1 mg/kg weight, 1.0 mg/kg weight, 10 mg/kg weight, 30 mg/kg weight, or 100 mg/kg weight) or a casein hydrolysate (10 mg/kg weight, 100 mg/kg weight, or 1000 mg/kg weight) was administered once orally. The anti-anxiety effect was examined by an elevated plus-maze test 30 minutes after the administration. The casein hydrolysate was the same as that in Example 1. […] The behaviors thereof were observed, and the accumulative time of stay on the open arms was measured. From the measured value, the percentage of the accumulative time of stay on the open arms in a 5-minute test was found, and used as an index of the anti-anxiety effect. […] The measured values were expressed in the form of mean±standard error for each group and a comparison with the control group was conducted by using an unpaired Student's t test.

[2] = tested on: gastric emptying function; test: Gastric emptying function test (phenol red dye discharge); type: in vivo, rat; settings: SD rats, oral 0.1 mg/kg weight, dye 30 minutes later, stomach extirpated 20 minutes after dye; mean±standard error; control 78.8±2.41%
Experimental: Water or 0.1 mg/kg weight of Tyr-Pro was administered to rats (n=10), and 30 minutes later a dye (phenol red) was administered. After additional 20 minutes, each stomach was extirpated, and the dye remaining in the stomach was determined. A significance test with respect to the water-administered control group was conducted by an unpaired Student's t test.
Male Sprague-Dawley (SD) rats (6-week old) (n=10) were used, and they took food and water ad lib. After preliminary feeding for one week or longer, the rats were subjected to the experiment. Prior to the test, all the rats were fasted in a fasting cage for 24 hours. During the period, the rats took water ad lib. In the test, a solvent (distilled water for injection) and 0.1 mg/kg weight of Tyr-Pro were orally administered to the rats, and, 30 minutes later, a 0.05% dye (phenol red) solution (containing 1.5% of carboxylmethyl cellulose) was orally administered at a volume of 1.5 ml/rat. Each stomach was extirpated under ether anesthesia 20 minutes after the administration of the dye without delay. […] The supernatant was centrifuged, and then measured for absorbance at 560 nm. The gastric emptying function (GE: gastric emptying) was calculated in accordance with the following formula.
GE(%)=(1−absorbance of solution recovered from stomachs of test-substance-administered group/absorbance at gastric emptying of 0%)×100 […]

[3] = tested on: sympathetic nerve controlling the adrenal gland; test: Action potential of the sympathetic nerve controlling the adrenal gland (ASNA) after oral administration; type: in vivo, rat; settings: rats, 0.012 mg/kg weight, 5 to 60 minutes after administration, ANOVA
Experimental: […] […] Values for 5 to 60 minutes after the administration were treated as a group, and a significance test with respect to the water-administered control group was conducted by the analysis of variance (ANOVA).
(§1) Male Wister rats (approximately […]) (n=3) with a body weight of approximately 300 g were used, and they took food and water ad lib. To examine the activity of the autonomic nerve, after a 3-hour fast, a polyethylene tube for oral administration was inserted into the oral cavity of each rat under urethane anesthesia in the middle of a light period. Thereafter, a sympathetic nerve controlling the adrenal gland, a parasympathetic (vagus) nerve controlling the stomach, or sympathetic nerve in a cutaneous artery of the tail was hooked to a silver electrode, and the electrical activity of the nerve was determined. From the start of the operation to the completion of the determination, the tube was kept inserted in the trachea to secure the airway, and the body temperature (rectal temperature of the rat) was kept at 35.0±0.5° C. by using an incubator. In a period where the activities of these nerves were stabilized, 1 ml of each sample was orally administered through a polyethylene tube, and the changes in activities of these nerves were measured. […]

[4] = tested on: parasympathetic (vagus) nerve controlling the stomach; test: Action potential of the parasympathetic (vagus) nerve controlling the stomach (GVNA) after oral administration; type: in vivo, rat; settings: rats, 5 to 60 minutes after administration, ANOVA
Experimental: Water or 0.045 mg/kg weight or 0.12 mg/kg weight of Tyr-Pro was administered to rats (n=3), and the action potential of the parasympathetic (vagus) nerve controlling the stomach was measured over time. […] Values for 5 to 60 minutes after the administration were treated as a group, and a significance test with respect to the water-administered control group was conducted by the analysis of variance (ANOVA).
as §1, with “From the start of the operation to the completion of the determination, the tube was kept inserted in the trachea to secure the airway, and the body temperature (rectal temperature of the rat) was kept at 35.0±0.5° C. by using an incubator.” left out

[5] = tested on: scopolamine-induced amnesia; test: Scopolamine-induced amnesia, Y-shaped maze test (spontaneous alternation behavior); type: in vivo; settings: ddY mice, oral 1.5 mg/kg weight to 15 mg/kg weight, 60 minutes before Y-shaped maze; scopolamine 1 mg/kg s.c.
Experimental: A significance test on the groups was conducted by a Dunnett's multiple comparison test.
Male ddY mice (approximately 7-week old) (n=15) were used, and they took food and water ad lib.
The test substances were administered to the mice once orally 60 minutes before the execution of a Y-shaped maze test for evaluation of spontaneous alternation behavior. Further, 30 minutes before the execution of the Y-shaped maze test, 1 mg/kg weight of scopolamine was subcutaneously administered on the backs, of the mice in order to induce dysmnesia and/or cognitive impairment in the mice. […] The sequence of the arms into which each of the mice entered was recorded. The number of entries into the arms of each mouse during the measurement time was counted to be the total number of entries. […] The percentage of change in spontaneous alternation behavior was calculated by dividing the number of spontaneous alternation behavior by a number obtained by subtracting 2 from the total number of entries and multiplying a resultant number by 100. […] The measured values were expressed in the form of mean±standard error for each group. […]

[6] = tested on: sympathetic nerve in a cutaneous artery of the tail; test: Action potential of the sympathetic nerve in the cutaneous artery of the tail (CASNA) after oral administration; type: in vivo, rat; settings: rats, 0.12 mg/kg weight, 5 to 60 minutes after administration
Experimental: Water, 0.12 mg/kg weight of Tyr-Pro, or 4.2 mg/kg weight of a casein hydrolysate was administered to rats (n=3), and the action potential of the sympathetic nerve in the cutaneous artery of the tail was measured over time. […] Values for 5 to 60 minutes after the administration were treated as a group, and a significance test with respect to the water-administered control group was conducted by the analysis of variance (ANOVA).
Male Wister rats (approximately 0-week old) (n=3) with a body weight of approximately 300 g were used, and they took food and water ad lib. To examine the activity of the autonomic nerve, after a 3-hour fast, a polyethylene tube for oral administration was inserted into the oral cavity of each rat under urethane anesthesia in the middle of a light period. Thereafter, a sympathetic nerve controlling the adrenal gland, a parasympathetic (vagus) nerve controlling the stomach, or sympathetic nerve in a cutaneous artery of the tail was hooked to a silver electrode, and the electrical activity of the nerve was determined. […] In a period where the activities of these nerves were stabilized, 1 ml of each sample was orally administered through a polyethylene tube, and the changes in activities of these nerves were measured. […]

| Compound | effect of controlling the autonomic nerve (autonomic nerve) | binding capability to opioid receptors (opioid receptors) | effect of lowering the blood pressure (blood pressure) | analgesic effect (pain) | anti-anxiety effect [1] | dye discharge percentage (gastric emptying, GE) [2] [%] | sympathetic nervous activity in the adrenal gland in comparison with the water-administered group [3] | parasympathetic nervous activity in the stomach in comparison with the water-administered group ([4]; 0.045 mg/kg weight) | parasympathetic nervous activity in the stomach in comparison with the water-administered group ([4]; 0.12 mg/kg weight) | effect of preventing amnesia [5] | sympathetic nervous activity in the cutaneous artery in comparison with the water-administered group [6] |
| --- | --- | --- | --- | --- | --- | --- | --- | --- | --- | --- | --- |
| NCCC(=O)N[C@@H](Cc1cnc[nH]1)C(=O)O [carnosine] | an effect of controlling the autonomic nerve |  |  |  |  |  |  |  |  |  |  |
| Tyr-Pro |  | lacks binding capability to opioid receptors | effect of lowering the blood pressure | exhibit an analgesic effect | exhibited an anti-anxiety effect | 85.4±2.01 | significantly decreased | significantly increased | significantly increased | an effect of preventing amnesia | a tendency was observed that the sympathetic nervous activity in the cutaneous artery was lowered |
